Source: the METLIN SMRT retention time set (Domingo-Almenara et al. 2019)

Assay: gradient 5% acetonitrile 3 min, to 50% in 2 min, to 85% in 15 min, held 3 min, 100 µL/min
Details: column: Zorbax Extend-C18 2.1 x 50 mm; eluents: water / acetonitrile, 0.1% formic acid
Outline: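 Retention time was recorded from adduct peaks, which were picked computationally and each inspected manually. Pure standards ran in mixtures of ~100 molecules on HPLC coupled to a quadrupole time-of-flight mass spectrometer, in positive and negative ionization mode, through a Zorbax Extend-C18 column (2.1 × 50 mm, 1.8 μm) at 100 μL/min. Eluents were water and acetonitrile, each with 0.1% formic acid.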

SMILES | RP-LC retention time
CCn1ccc(C(=O)N2CCC(Nc3ncnc4c3CCC4)CC2)n1 | 553 s
O=C(Nc1nnc(-c2cc(Cl)sc2Cl)o1)c1cccc(C(F)(F)F)c1 | 1010 s
CCSc1nccc2c1ccn2CC(=O)NCc1ccc(OC)cc1OC | 651 s
O=C(NCc1ccc(-c2nc(-c3ccc(F)cc3)no2)s1)C1CCC1 | 975 s
O=C(NOCC1CC1)c1ccc(F)c(F)c1Nc1ccc(I)cc1Cl | 1150 s
CCN1CCCn2cc(S(=O)(=O)Nc3cc(OC)ccc3OC)cc2C1=O | 704 s
CS(=O)(=O)N1CCCC(C(=O)NC2CCCC2)CCNC(=O)CC1 (centres undefined) | 603 s
O=C(Cn1ncc2c(N3CCN(c4ccccn4)CC3)ncnc21)Nc1cccc(Cl)c1 | 638 s
O=C(Cn1cnc2nc(N3CCCC(C(=O)NC4CC4)C3)sc2c1=O)Nc1ccc2c(c1)CCC2 (centres undefined) | 744 s
COc1ccc(NC(=O)CN2CCN(Cc3ccc(F)cc3)C(=O)C2=O)cc1 | 697 s
Cc1ccc(C(=O)N2CCC3(CC2)c2nccn2-c2ccccc2CN3CC(C)C)cc1F | 786 s
CCc1noc(NC(C)=O)c1-c1ccc(C)c(S(=O)(=O)N2CCN(C(=O)c3ccco3)CC2)c1 | 758 s
CCN1CCN(Cc2ccc(C(=O)Nc3ccc(C)c(Oc4ccc5c(c4)CC(=O)N5)c3)cc2C(F)(F)F)CC1 | 817 s
CCCNC(=O)c1sc(-n2nc(C)c(Cl)c2C)nc1C | 1130 s
COc1ccc(NC(=O)Cn2c(=O)n(-c3ccccc3)c(=O)c3c2cc(C)n3C)cc1Cl | 842 s
COc1nc2ccccc2nc1N1CCCC(C(=O)NC2CCCC2)C1 (centres undefined) | 1000 s
O=C(COc1ccc(Cl)cc1)Nc1ccc(-c2nc(-c3ccc(F)cc3)no2)cc1 | 1260 s
O=C(NC(c1ccccc1)c1nnc(N2CCCCC2)o1)c1ccco1 (centres undefined) | 774 s
COc1ccc(CNc2nc(NCc3ccc(OC)cc3)c3ncn(C(C)C)c3n2)cc1 | 809 s
Cn1ncc2c3ccccc3n(CCCC(=O)NCCCN3CCCC3=O)c2c1=O | 665 s
CC1CCN(CCCNC(=O)c2nnc(-c3ccc(S(=O)(=O)N4CCCC4)cc3)o2)CC1 | 642 s
O=C(O)CNS(=O)(=O)c1ccc(Cl)c(-c2nnc(-c3ccccc3)o2)c1 | 766 s
CCS(=O)(=O)N1CCC(Cc2ccc(CN3CCOCC3)cc2)CC1 | 622 s

SMILES | RP-LC retention time
O=C(C1CCN(c2cnc(N3CCSCC3)nc2)CC1)N1CCC2(CC1)OCCO2 | 692 s
Cc1ccccc1NC(=O)c1nnc(CSCC(=O)N2CCN(c3ccccn3)CC2)s1 | 637 s
CCCN1C(=O)c2cc(S(=O)(=O)NCc3cccs3)ccc2Oc2cccnc21 | 988 s
CCn1c(=O)n(-c2ccc(F)cc2)c2nc(-c3ccc(F)cc3F)nc(C(N)=O)c21 | 1000 s
COCCSc1nnc(NC(=O)C2CCN(C(=O)c3ccccc3F)CC2)s1 | 680 s
CCN(CCNC(=O)C1CCN(c2nnc3ccc(Cl)cn23)CC1)c1ccccc1 | 629 s
O=C(c1ccccc1C(F)(F)F)N1CCc2nc(-c3ccc(F)cc3)ncc2C1 | 1020 s
CCOC(=O)c1nc(NCc2ccccc2OCC)c2c(C)noc2n1 | 988 s
CCN1CCN(c2nc3cc(C(=O)OC)ccc3c(=O)n2-c2ccc(F)c(Cl)c2)CC1 | 655 s
COc1cccc(-c2noc(CN3C(=O)COc4ccc(C(C)(C)C)cc43)n2)c1 | 1250 s
CC(=O)c1c(N(C)CCO)nc2ccc(Cl)cc2c1-c1ccccc1 | 834 s
O=c1c2cc(-c3ccccc3Cl)nn2cnn1Cc1nc(-c2ccccc2)no1 | 1110 s
CCn1ccc(C(=O)Nc2cnc(N3CCCCC3)nc2)n1 | 778 s
Cc1ccc(C)c(NC(=O)N2CCC(c3nc(C(=O)N(C)C)c(C)o3)CC2)c1 | 711 s
CCCCN(C)C(=O)Cn1c(C2CC(=O)N(Cc3ccccc3)C2)nc2ccccc21 (centres undefined) | 742 s
O=C(Nc1ccc(Cl)cc1F)C1CCN(c2nccnc2Sc2ccccc2)CC1 | 1190 s
CCCc1ccc(-c2cc(C(=O)N3CCN(c4ccccn4)CC3)c3ccccc3n2)cc1 | 857 s
Cc1nc(-c2csc(S(=O)(=O)N3CCCC(C(=O)NC4CCCCCC4)C3)c2)no1 (centres undefined) | 1000 s
Cc1nnc(-c2ccc3ccn(CC(=O)NCc4ccc5c(c4)OCO5)c3c2)o1 | 756 s
Cc1scc2nc(C(=O)N3CCN(C4CCCC4)CC3)nc(N3CCCC3)c12 | 550 s
COC(=O)Cn1c(C)cc(=O)n2nc(-c3ccc(Cl)cc3)nc12 | 793 s
O=C(N1CCCC(c2nnc(-c3cccs3)o2)C1)C1(c2ccccc2)CCOCC1 (centres undefined) | 812 s
COc1cc(/C=C2\CCCN([C@@H](C)c3ccc(F)cc3)C2=O)ccc1-n1cnc(C)c1 | 834 s

SMILES | RP-LC retention time
O=C(NCCCN1CCOCC1)c1c2c(nc3ccccc13)C(=O)N(C1CCCCC1)C2 | 598 s
Cc1ccc(NC(=O)Cn2ncc3c(c2=O)N(CC2CC2)C(=O)CS3)cc1F | 928 s
Cc1ccc(-c2nnc(-c3cccc(S(=O)(=O)Nc4cccnc4)c3)o2)cc1 | 775 s
Cc1ccc(-n2cc(C3=CCN(CC(=O)N4CCN(c5ccccn5)CC4)CC3)cn2)cc1 | 584 s
O=C(Cn1nc(-c2ccccc2)c2cc(Cl)ccc21)NCc1cccnc1 | 712 s
CCCC(NC(=O)Cc1cccs1)C(=O)Nc1nc2ccccc2[nH]1 (centres undefined) | 692 s
CCn1cc(S(=O)(=O)N2CCCC2c2noc(CO)n2)cn1 (centres undefined) | 619 s
Oc1ccc(-c2nc3ncccn3c2Nc2ccc3c(c2)OCCO3)cc1 | 610 s
O=C(NCCC1CCN(C(=O)Nc2ccccc2F)CC1)c1ccco1 | 1170 s
O=C(CSCc1ccccc1)N1CCC(Cn2cccn2)CC1 | 721 s
O=C(NCc1ccsc1)NC(c1ccccc1)c1ccccc1 | 863 s
Cc1nn(-c2ccccc2)c(C)c1S(=O)(=O)Nc1ccc(S(N)(=O)=O)cc1 | 731 s
c1cc(-c2nc(-c3ccc(-c4csc(C5CC5)n4)cc3)no2)ccn1 | 1290 s
O=C(CCc1csc(NC(=O)NC2CCCCC2)n1)NCCC1=CCCCC1 | 843 s
Cc1cc(C)c(S(=O)(=O)N(CCN2CCCCC2C)CC(=O)N2CCNCC2)c(C)c1 (centres undefined) | 601 s
CS(=O)(=O)N(Cc1ccncc1)C1CN(C(=O)c2ccoc2)C1 | 552 s
Cc1noc(-c2nn(C)c3c2CN(C(=O)c2cc4c(s2)CCCC4)CC3)n1 | 882 s
O=C(Nc1nc(-c2ccccc2)ns1)c1ccccc1Cl | 989 s
COC(=O)c1ccc2nc(NC(=O)C3CCCCC3)sc2c1 | 932 s
COc1cc(-c2noc(Cc3nnc(-c4ccc(C)c(F)c4)o3)n2)cc(OC)c1OC | 996 s
CCc1nc2sc(C(C)C)nn2c1S(=O)(=O)NC1CCCCC1 | 1020 s
O=C(NCC1CCOCC1)Nc1ccc(Cl)cc1F | 764 s
O=C(COC(=O)C(c1ccccc1)c1ccccc1)Nc1ccc2c(c1)OCO2 | 940 s

SMILES | RP-LC retention time
Cn1cc(C2=CCN(S(=O)(=O)c3ccc(F)c(Cl)c3)CC2)c2cccnc21 | 1050 s
COCCN1C(=O)CCc2cc(NS(=O)(=O)c3ccc(OC)c(Cl)c3)ccc21 | 794 s
COc1ccc(N2CCN(C(=O)CN3CCN(Cc4cccc(Cl)c4)C3=O)CC2)cc1 | 784 s
O=C(Nc1cc(-c2ccccn2)no1)c1cccc(F)c1 | 791 s
Cc1cc(CNC(=O)C2(c3ccc(F)cc3)CC2)c(C)o1 | 900 s
COc1ccc(N2CCN(C(=O)C3CCCN(c4nccc5sc(C)cc45)C3)CC2)cc1 (centres undefined) | 676 s
O=C1CC2OCC=C3CN4CC[C@]56c7ccccc7N1C5[C@H]2[C@H]3C[C@H]46 (some centres undefined) | 583 s
CCc1ccc(NC(=O)N2CCc3c(c(-c4nc(C5CC5)no4)nn3C)C2)cc1 | 934 s
COc1ccccc1N1CCN(c2ncccc2-c2nc(-c3ccc(Cl)cc3)no2)CC1 | 1320 s
Nc1nnc(SCc2nnc(-c3cccc(F)c3)o2)s1 | 646 s
O=C(Nc1nc(C(=O)N2CCN(c3ncccn3)CC2)co1)c1ccccc1 | 632 s
COc1ccc(CCNC(=O)c2cc3c(=O)n(C)c(=O)n(C)c3s2)cc1OC | 668 s
CCNC(=O)C1CCCN(c2nc3ncn(CC(=O)Nc4ccc(C)c(Cl)c4)c(=O)c3s2)C1 (centres undefined) | 738 s
Cc1cccc(NC(=O)N2CCC(CC(=O)N3CCCCC3)CC2)c1C | 751 s
CCSC1=NCCN1C(=O)c1ccc(C(F)(F)F)cc1 | 679 s
COc1ccc(C2CCN(C(=O)Nc3cccc(C(F)(F)F)c3)C2)cc1 (centres undefined) | 954 s
CCOCC(=O)N1CCCC(c2nc(CNC(=O)C(C)C)cs2)C1 (centres undefined) | 625 s
O=C(NCC(=O)N1CCCc2ccccc21)c1cccs1 | 761 s
CCn1nc(C)c(CNC(=O)Nc2cc(OC)c(OC)c(OC)c2)c1C | 615 s
CCn1nccc1C(=O)N1CC(Oc2cccc(-c3nc(C)no3)c2)C1 | 811 s
